{
  "source": "patent US5272175A",
  "about": "“Substituted tyrosyl diamide compounds” (priority 1992, dated 1993)",
  "key": {"mice [1]": {"test_system": "mice", "assay": "Hot Plate Assay (Hind Paw Lick Assay)", "format": "in vivo, Male Charles River albino mice", "settings": "Mus musculus, sc, subcutaneous, 55 degrees Celsius, dose producing half maximum possible increase in latency (to 25 seconds)", "excerpt": "(§1) The \"Tail Flick Assay\" and the \"Hot Plate Assay\" (also known as the \"Hind Paw Lick Assay\") use thermal pain of transient duration, and are tests in which the pain threshold of the mice or rats being analyzed has not been altered. They are useful for evaluating the ability of a compound or drug to increase the animal's pain threshold (i.e. prolong response latencies), rather than to restore normal thresholds.\n(§2) The heat-induced response to the Tail Flick Assay is a reflex reaction mediated at the level of the spinal cord. The heat-induced response to the Hot Plate Assay, however, is a more complex behavior requiring integration at higher centers in the brain. […]\n(§3) Tail flick response latencies (defined as the time that elapsed between the onset of a high intensity beam of light and the reflex removal of the mouse's tail) and hot plate response latencies (defined as the time that elapsed between the placement of a mouse on a 55 degrees Celsius surface and a lick of the hind paw) were separately, but consecutively, measured before (baseline) and again at fixed intervals after subcutaneous administration of the Test Tyrosyl Diamide Compound, or after the administration of saline (controls). […] The significance of any increase in tail flick response latency or hot plate response latency is determined using analyses of variance. […]"}, "mice [2]": {"test_system": "mice", "assay": "Tail Flick Assay", "format": "in vivo, Male Charles River albino mice", "settings": "Mus musculus, sc, subcutaneous, dose producing half maximum possible increase in latency (to 7.5 seconds)", "excerpt": "as §1, §2, §3"}, "mice [3]": {"test_system": "mice", "assay": "Writhing Assay (phenylbenzoquinone (PBQ)-induced writhing), analgesic activity", "format": "in vivo, CD Charles River mice", "settings": "for ED50: Mus musculus, 50% of mice with writhes <= half control median", "excerpt": "The \"Writhing Assay\" is one of the most widely-used experimental procedures for measuring the analgesic activity of different narcotic and nonnarcotic analgesic agents, and involves the continuous, chemically-induced pain of visceral origin to an animal, such as a mouse or rat. [Gyires et al., Arch. int. Pharmacodyn, 267, 131-140 (1984); C. Vander Wende et al., Fed. Proc., 15, 494 (1956); Koster et al., Fed. Proc., 18, 412 (1959); and Witken et al., J. Pharmacol. Exp. Ther., 133, 400-408 (1961).] Chemicals which may be used to induce this pain include phenylbenzoquinone (PBQ) and acetic acid. As a result of the chemical irritation to the animal, a characteristic stretching and writhing of the animal (dorsiflexion of the animal's back, extension of its hindlimbs and the strong contraction of its abdominal musculature) will generally occur. […] Drugs which reduce the number of writhes of the animal appear to restore the normal nociceptive threshold of the animal.\nThis assay was conducted generally in the manner described by R. I. Taber, \"Predictive Value of Analgesic Assays in Mice and Rats,\" Advances in Biochemical Phychopharmacology, 8, 191 (1974).\nTwo hundred CD Charles River mice, weighing 20 to 30 grams, were used in this assay.\nTwenty-five minutes after subcutaneous administration, and fifteen minutes after oral administration, to the mice of 10 mg per kilogram (mpk) of body weight of either a tyrosyl diamide compound of the invention (hereinafter \"test compound\"), or of the Jacobson Compound, 0.1 mL per 10 g of body weight of a 0.025% w/v solution of phenylbenzoquinone (PBQ) was injected intraperitoneally into each mouse. Some mice were given saline in place of a test compound, or of the Jacobson Compound, and were used as a control group.\nFive minutes later, each mouse was individually placed into a glass beaker for observation, and the number of writhes occurring during the following ten-minute period was counted.\nA compound was considered to be \"active\" (to have produced analgesia in a mouse) if, after the administration of 10 mg per kilogram (mpk) of body weight of the compound to the mouse, the number of writhes elicited by a mouse injected with PBQ was equal to, or less than, one-half the median number of writhes recorded for the saline-treated control group of mice that day, as described by R. I. Taber, supra.\nThe standard initial screening dose of a test compound employed in this assay was 10 mpk […] for both routes of administration. If this initial screening dose of the compound produced analgesia in seven of ten mice, then the effect of additional doses of the compound on the writhing response was evaluated, and then the ED50 value (that dose of a compound which produced analgesia in 50% of the mice to which the compound was administered) was calculated. A maximum likelihood function was used to determine the ED50 value. (The slopes of the dose-response curves for the compounds analyzed were compared as described by Tallarida and Murray, Manual of Pharmacologic Calculations, Page 1 (Springer Verlag, N.Y., 1981))."}, "δ opioid receptors": {"biological_target": "δ opioid receptors (Rattus norvegicus, UniProt P33533)", "sequence (P33533 whole entry)": "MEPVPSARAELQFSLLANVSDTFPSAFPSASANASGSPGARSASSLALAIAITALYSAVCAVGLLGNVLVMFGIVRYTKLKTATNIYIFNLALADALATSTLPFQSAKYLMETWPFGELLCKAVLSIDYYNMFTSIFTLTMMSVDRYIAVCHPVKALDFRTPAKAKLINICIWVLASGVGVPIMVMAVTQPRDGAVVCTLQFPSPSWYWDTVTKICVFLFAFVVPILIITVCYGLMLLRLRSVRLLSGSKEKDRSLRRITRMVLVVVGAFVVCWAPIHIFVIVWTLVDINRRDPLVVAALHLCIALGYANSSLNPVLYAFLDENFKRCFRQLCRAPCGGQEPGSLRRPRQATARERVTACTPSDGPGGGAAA", "assay": "Opiate Binding Assay, displacement of 3[H]-DSLET from δ receptors"}, "μ opioid receptors": {"biological_target": "μ opioid receptors (Rattus norvegicus, UniProt P33535)", "sequence (P33535 whole entry)": "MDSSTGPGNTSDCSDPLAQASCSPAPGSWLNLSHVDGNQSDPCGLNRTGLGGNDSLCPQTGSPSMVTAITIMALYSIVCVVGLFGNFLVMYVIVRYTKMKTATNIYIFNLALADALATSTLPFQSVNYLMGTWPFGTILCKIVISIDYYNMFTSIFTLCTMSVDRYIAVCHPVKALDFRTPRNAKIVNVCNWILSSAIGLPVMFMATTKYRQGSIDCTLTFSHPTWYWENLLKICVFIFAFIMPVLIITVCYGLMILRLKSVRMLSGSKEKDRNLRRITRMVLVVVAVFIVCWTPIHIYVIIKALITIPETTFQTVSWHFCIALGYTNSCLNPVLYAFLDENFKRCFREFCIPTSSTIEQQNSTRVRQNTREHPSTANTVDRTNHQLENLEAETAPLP", "assay": "Opiate Binding Assay, displacement of 3[H]-DAMPGO from μ receptors"}},
  "note": "Structures can show the parent of a compound that is named as a salt.",
  "data": [
    {"smiles": "CC(=O)N[C@@H](Cc1ccccc1)C(=O)NCC(C)(C)NC(=O)[C@@H](N)Cc1c(C)cc(O)cc1C", "note": "[Example 47, αS-(Acetylamino)-N-[2-[[[2S-amino-3-(4-hydroxy-2,6-dimethylphenyl) -1-oxopropyl]amino]-2-methylpropyl]-benzenepropanamide, monohydrochloride]", "values": [
      {"measurement": "ED50", "setting": "mice [1]", "value": 2.4, "unit": "mg/kg"},
      {"measurement": "ED50", "setting": "mice [2]", "value": 1.9, "unit": "mg/kg"},
      {"measurement": "potency rank in the Writhing Assay", "setting": "mice [3]", "value": "most potent compound of the invention tested"},
      {"measurement": "ED50", "setting": "mice [3]; 0.25 h, oral, PBQ i.p. 15 min after compound, read-out: ED50, Writhing Assay, Oral (p.o.)", "value": 0.6, "unit": "mg/kg"},
      {"measurement": "ED50", "setting": "mice [3]; sc, 25 min, subcutaneous, PBQ i.p. 25 min after compound, read-out: ED50, Writhing Assay, Subcutaneous (S.C.)", "value": 0.2, "unit": "mg/kg"},
      {"measurement": "potency relative to the Jacobson Compound, Writhing Assay, oral", "setting": "mice [3]; oral", "value": "seven times more potent"},
      {"measurement": "potency relative to the Jacobson Compound, Writhing Assay, subcutaneous", "setting": "mice [3]; subcutaneous", "value": "eight times more potent"},
      {"measurement": "IC50", "setting": "δ opioid receptors", "value": 0.3, "unit": "nM"},
      {"measurement": "Mean IC50 μ/δ Ratio", "setting": "δ opioid receptors; ratio of mean IC50 values for μ and δ, above 1.0 = more δ specific", "value": 1.3},
      {"measurement": "IC50", "setting": "μ opioid receptors", "value": 0.4, "unit": "nM"}
    ]}
  ]
}
